Reference: patent US20250099596A1, “TETRAHYDRONAPHTHALENE COMPOUND, AND PREPARATION METHOD THEREFOR AND USE THEREOF IN MEDICINE” (Jiangsu Hengrui Pharmaceuticals Co., Ltd., priority 2021, published 2025)
In brackets after ≈: the same amount, converted by molar mass. Like-named read-outs stand apart in the source and are kept apart here.

Key:
[1] = Pharmacokinetic evaluation, beagle test; assay type: in vivo; settings: beagles; for AUC(0-t): read-out: Area under curve AUC0-t; for half-life: read-out: Half-life T1/2 (converted); for Cmax: read-out: Plasma concentration Cmax
Experimental: With beagles as test animals, the plasma concentrations of the compound of Example 26-1 and Comparative Example 1 were determined by LC/MS/MS at different time points after intragastric (i.g.)/intravenous (i.v.) administration to beagles. The pharmacokinetic behavior of the compound of the present disclosure in beagles was studied and its pharmacokinetic profile was evaluated.
The compound of Example 26-1 and Comparative Example 1 (see patent WO2018102725A1, Example 411), whose structure is shown below:
Sixteen beagles, of which half were male and half female, were evenly divided into 4 groups. The beagles were provided by Shanghai Medicilon Inc. The 4 groups were fasted overnight and then dosed intragastrically and intravenously.
Certain amounts of the compound of Example 26-1 and the compound of Comparative Example 1 were weighed out and mixed with 5% (v/v) DMSO+30% (v/v) PG+30% (v/v) PEG400+35% (v/v) normal saline to make 0.4 mg/mL clear solutions (for the intragastric administration groups) and 0.25 mg/mL clear solutions (for the intravenous administration groups).
The intragastric administration groups: the dose was 2.0 mg/kg, and the volume was 5.0 mL/kg.
The intravenous administration groups: the dose was 0.5 mg/kg, and the volume was 2.0 mL/kg.
The intragastric administration group: Blood (1.0 mL) was collected from the jugular vein or the forelimb vein into EDTA-K2 anticoagulation tubes before administration and 0.25 h, 0.5 h, 1.0 h, 2.0 h, 4.0 h, 6.0 h, 8.0 h, 12.0 h and 24.0 h after administration and centrifuged at 10,000 rpm for 5 min (4° C.). The plasma was separated within 1 h and stored at −80° C. before analysis. The process from blood collection to centrifugation was performed in an ice bath. Three hours after administration, feeding was resumed.
The intravenous administration groups: Blood was collected before administration and 5 min, 0.25 h, 0.5 h, 1.0 h, 2.0 h, 4.0 h, 8.0 h, 12.0 h and 24 h after administration and processed as in the intragastric administration groups.
The plasma concentrations of the test compounds were determined after administration of different concentrations of the test compounds to beagles: plasma samples (50 μL) were collected from beagles at various time points after administration, and proteins were precipitated with 500 μL of methanol (containing 100 ng/mL internal standard Verapamil) for each of the samples; the mixtures were vortexed for 1 min and centrifuged at 18,000 g for 7 min. 500 μL of supernatant was transferred to a 96-well plate. 1 μL of supernatant was collected for LC/MS/MS analysis.

[2] = system: MCF7/ERα Y537S cells; test: Inhibitory activity on proliferation of ERα mutant-expressing MCF7 cells; assay type: cell-based; settings: Homo sapiens, 144 h, 6 days incubation, CellTiter-Glo, read-out: IC50 (nM), inhibition of proliferation of ERα mutant-expressing MCF7 cells
Outline: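 MCF7 cells stably expressing ERα Y537S (lentiviral) were seeded in 2% FBS medium and exposed for 6 days at 37 °C to 9 concentrations (4-fold dilution from 1000 nM, 0.5% DMSO control). Viability read by CellTiter-Glo luminescence; IC50 calculated from concentration–signal data.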

[3] = Solubility in FassIF and FessIF solution; assay type: physicochemical; settings: thermodynamic from solid
Experimental: Solution (A): 4.441 g of NaH2PO4·2H2O, 0.348 g of NaOH granules and 6.186 g of NaCl were added to 900 mL of ultrapure water and well mixed, and the solution was adjusted to pH 6.5±0.05 with 1 M NaOH, brought to volume (1000 mL) with water, and stored at 4° C. for future use.
FaSSIF solution (B): 0.161 g of sodium taurocholate (NaTC) and 59 mg of lecithin were dissolved in 20 mL of solution (A). The resulting solution was vigorously stirred overnight to form a clear micellar solution, and solution (A) was added to make a volume of 100 mL. The resulting solution was stored at 4° C. for future use (not more than 2 weeks).
Solution (A): 20.2 g of NaOH granules, 43.25 g of acetic acid and 59.37 g of sodium chloride were precisely weighed out and dissolved in a proper amount of ultrapure water. The solution was brought to volume (5 L), adjusted to pH 5.0 with 1 M NaOH or 1 M HCl, and stored at 4° C. for future use.
FeSSIF solution (B): 0.80652 g of sodium taurocholate (NaTC) and 295.5 mg of lecithin were dissolved in 25 mL of solution (A). […]
3.1. […] 10 μL of the stock solution (concentration 10 mM, dissolved in DMSO) was precisely measured out and well mixed with 990 μL of an organic solvent mixture (usually DMSO:acetonitrile:ethanol=1:1:1) in a 2 mL sample flask to obtain a 100 μM clear sample solution as a reference solution. […]

[4] = both sexes, beagle, dog, plasma, iv, i.v., 0.5 mg/kg
[5] = both sexes, beagle, dog, plasma, po, i.g., 2.0 mg/kg

- Clearance CL/F ([1]; i.v., 0.5 mg/kg): 1.7 mL/min/kg
- AUC(0-t) [1, 4]: 4070 ng·h/mL
- half-life [1, 4]: 9.7 h
- Cmax [1, 4]: 1600 ng/mL
- Vd/F ([1]; both sexes, beagle, dog, plasma, po, i.g., 2.0 mg/kg, read-out: Apparent distribution volume Vz/F): 5.67 L/kg
- AUC(0-t) [1, 5]: 4820 ng·h/mL
- CL/F ([1]; both sexes, beagle, dog, plasma, po, i.g., 2.0 mg/kg, read-out: Clearance CL/F): 6.2 mL/min/kg
- half-life [1, 5]: 10.4 h
- Cmax [1, 5]: 436 ng/mL
- IC50 [2]: 1.67 nM
- solubility at 24 h ([3]; FassIF solution pH 6.5, 37° C., read-out: Solubility in FassIF solution): 97 µM (≈ 68.3 µg/mL)
- solubility at 24 h ([3]; FessIF solution pH 5.0, 37° C., read-out: Solubility in FessIF solution): 553 µM (≈ 389 µg/mL)
Compound: CC(C)C[C@H]1CCc2cc(O)ccc2[C@H]1c1ccc(N2CCC(CN3CCN(c4ccc5c(c4)CN([C@H]4CCC(=O)NC4=O)C5=O)CC3)CC2)cc1 [Example 26-1, (S)-3-(5-(4-((1-(4-((1R,2R)-6-Hydroxy-2-isobutyl-1,2,3,4-tetrahydronaphthalen-1-yl)phenyl)piperidin-4-yl)methyl)piperazin-1-yl)-1-oxoisoindolin-2-yl)piperidine-2,6-dione]
